Data reported in patent publication US6355619B1, “Peptide tumor cell growth inhibitors” (Board of Regents, The University of Texas System, priority 1996, dated 2002).
Where no end group is shown, it is not given here. [ ]: non-standard residue; d: D form.

What follows are substances tested against IL-8 receptors on human neutrophils (human) (assay: inhibition of 125I-IL-8 binding to human neutrophils, method of Example I; D-amino acid heptamer series). Settings: not given.
In the case of rrwwcra (peptide), the % INHIB. was 95.3%.
Substance rrwwcrd (peptide) has a % INHIB. of 107%.
With rrwwcre (peptide) the % INHIB. was 99.1%.
rrwwcrf (peptide) was tested, and the % INHIB. was 106%.
Work on rrwwcrg (peptide) yielded a % INHIB. of 108%.
rrwwcrh (peptide) showed a % INHIB. of 107%.
For rrwwcri (peptide), the % INHIB. was 93.9%.
In the case of rrwwcrk (peptide), the % INHIB. was 113%.
rrwwcrl (peptide) showed a % INHIB. of 99.1%.
In the case of rrwwcrm (peptide), the % INHIB. was 96.2%.
Work on rrwwcrn (peptide) yielded a % INHIB. of 111%.
rrwwcrp (peptide) gave a % INHIB. of 87.3%.
With rrwwcrq (peptide) the % INHIB. was 89.2%.
rrwwcrr (peptide) was tested, and the % INHIB. was 103%.

What follows are substances tested on IL-8 receptors on neutrophils (assay: Inhibition of 125I-labeled IL-8 binding to human neutrophils). Settings: not given.
Experimental: Therefore, in pursuing this aim, the present inventors assayed various other peptide compositions for IL-8 inhibitory activity by screening a library of 400 groups of hexapeptides. In these screening assays, ^125I-labeled interleukin-8 (10^−12 M) was mixed with 100 μM peptide, then added to neutrophils and incubated at 4° C. for 90 min. The bound radioactivity was separated from unbound by centrifugation through a dense cushion of a mixture of paraffin and silicon oils and the ^125I bound to neutrophils was counted in a gamma radiation spectrometer, allowing the results to be expressed as the percent of IL-8 binding which was inhibited.
The use of human subjects for acquisition of neutrophils was approved by the Institutional Review Board for human experimentation. For the preparation of neutrophils, human blood was anticoagulated with heparin for enzyme release studies and with 0.33% sodium citrate for other studies. For chemotactic and enzyme release studies neutrophils were separated by dextran sedimentation and erythrocyte lysis by the method of Boyum (Kohler and Milstein, 1975). For binding studies and cytotoxic studies, the neutrophils were further purified in gradients of Percoll (Pharmacia Fine Chemicals, Piscataway, N.J.) to a purity of 90-93% (Kohler and Milstein, 1975).
Recombinant human IL-8 (72 amino acids; Pepro Tech Inc., Rocky Hill, N.J.) was radioactively labeled with ^125I by the chloramine T method of Hunter and Greenwood (Hunter and Greenwood, 1962). Binding studies were performed according to Besemer et al. (1989), as follows: Neutrophils in phosphate buffered saline pH 7.4 (PBS) containing 0.1% bovine serum albumin (BSA) were incubated with labeled ligand in the presence or absence of the peptide being tested for 90 min at 4° C. to reach equilibrium and then centrifuged at 12,000×g for 3 min in Beckman B microfuge (Beckman Instruments, Fullerton, Calif.), through a cushion consisting of a mixture of paraffin oil Fisher Scientific, Fair Lawn, N.J.) and silicon oil (Serva Co., N.Y., N.Y.). The pellet and supernatant were then counted in a gamma radiation spectrometer. The non-specific binding was estimated to measure the binding in the presence of 100-fold excess of non-labeled ligand. The binding constants were calculated using the computer programs Lundon I and Lundon II.
In these studies, a screening for inhibition was carried out at 100 μM concentration of the peptide being tested, with a 10^−12 M concentration of IL-8. In the first series of studies, twenty peptides were synthesized with the carboxyl-terminal residue of RRWWCX (SEQ ID NO:23) being changed to each of the standard protein amino acids in turn.
For “Ac-KELRCQ-NH2 [IL-8 homologue peptide, reference compound]”, the “ability to inhibit IL-8 binding to neutrophils” value (from here on “ability to inhibit IL-8 binding”) was “None of these peptides had the ability to inhibit IL-8 binding”.
In the case of “Arg Arg Trp Trp Cys Arg Cys (Ac-[dR][dR][dW][dW][dC][dR][dC]-NH2; not fully specified; printed as Arg Arg Trp Trp Cys Arg Cys; cysteine pairing not given here) [rrwwcrc]”, the “potency as inhibitor relative to Ac-rrwwcr-NH2” value was “almost four times as potent”.
“Arg Arg Trp Trp Cys Asp (Ac-RRWWCD; also: D-amino acids, positions not given here)” was tested, and the “ability to inhibit IL-8 binding” value was “only minimally active”.
“ELRCQCIKTY [IL-8 homologue including the C-X-C motif, reference compound]” was tested, and the “ability to inhibit IL-8 binding” value was “None of these peptides had the ability to inhibit IL-8 binding”.
For ELRMQMIKTY [reference compound], the “ability to inhibit IL-8 binding” value was “None of these peptides had the ability to inhibit IL-8 binding”.
ELRSQSIKTY [reference compound] was tested, and the “ability to inhibit IL-8 binding” value was “None of these peptides had the ability to inhibit IL-8 binding”.
With “GWRRWWCDAVLY [segment of cell surface glycoprotein CD11c precursor, human leukocyte adhesion receptor p150,95 alpha chain, reference compound]” the “ability to inhibit IL-8 binding” value was “lack of activity”.

Same assay, conditions: 10 μM peptide (FIG. 9)
For “Arg Arg Trp Trp Cys Arg Cys (Ac-[dR][dR][dW][dW][dC][dR][dC]-NH2; not fully specified; printed as Arg Arg Trp Trp Cys Arg Cys; cysteine pairing not given here) [rrwwcrc]”, the “inhibition of IL-8 binding to neutrophils” value was 80%.

Same assay, conditions: 20 μM peptide
RRWWCN was tested, and the “IL-8 binding inhibition at lower peptide concentration (FIG. 1)” value was “did indeed exhibit certain inhibitory properties”.

Same assay, conditions: 100 μM peptide, 10^−12 M IL-8; hexamer RRWWCX series, first screen
For “Arg Arg Trp Trp Cys Asp (Ac-RRWWCD; also: D-amino acids, positions not given here)”, the “% INHIB. (IL-8 binding to neutrophils)” value was 11.8%.
For RRWWCA, the “% INHIB. (IL-8 binding to neutrophils)” value was 51.9%.
In the case of “RRWWCC (cysteine pairing not given here)”, the “% INHIB. (IL-8 binding to neutrophils)” value was 75.1%.
With RRWWCE the “% INHIB. (IL-8 binding to neutrophils)” value was 17.1%.
For RRWWCF, the “% INHIB. (IL-8 binding to neutrophils)” value was 80.2%.
RRWWCG was tested, and the “% INHIB. (IL-8 binding to neutrophils)” value was 86.8%.
In the case of RRWWCH, the “% INHIB. (IL-8 binding to neutrophils)” value was 87.9%.
RRWWCI was tested, and the “% INHIB. (IL-8 binding to neutrophils)” value was 45.8%.
With RRWWCK the “% INHIB. (IL-8 binding to neutrophils)” value was 110.3%.
With RRWWCL the “% INHIB. (IL-8 binding to neutrophils)” value was 86.9%.
With RRWWCM the “% INHIB. (IL-8 binding to neutrophils)” value was 69.0%.
In the case of RRWWCN, the “% INHIB. (IL-8 binding to neutrophils)” value was −12.0%.
In the case of RRWWCP, the “% INHIB. (IL-8 binding to neutrophils)” value was 88.3%.
For RRWWCQ, the “% INHIB. (IL-8 binding to neutrophils)” value was 19.2%.
In the case of RRWWCS, the “% INHIB. (IL-8 binding to neutrophils)” value was 79.3%.
In the case of RRWWCT, the “% INHIB. (IL-8 binding to neutrophils)” value was 88.4%.
With RRWWCV the “% INHIB. (IL-8 binding to neutrophils)” value was 81.1%.
RRWWCW was tested, and the “% INHIB. (IL-8 binding to neutrophils)” value was 66.4%.
With RRWWCY the “% INHIB. (IL-8 binding to neutrophils)” value was 77.9%.

Same assay, conditions: first set of heptamer studies, D-amino acid RRWWCRX series; methodology of Example I
In the case of “Arg Arg Trp Trp Cys Arg Ala ([dR][dR][dW][dW][dC][dR][dA]) [rrwwcra]”, the “% INHIB. (IL-8 binding to neutrophils)” value was 95.3%.
For “Arg Arg Trp Trp Cys Arg Arg ([dR][dR][dW][dW][dC][dR][dR]) [rrwwcrr]”, the “% INHIB. (IL-8 binding to neutrophils)” value was 102.8%.
In the case of “Arg Arg Trp Trp Cys Arg Asn ([dR][dR][dW][dW][dC][dR][dN]) [rrwwcrn]”, the “% INHIB. (IL-8 binding to neutrophils)” value was 110.8%.
“Arg Arg Trp Trp Cys Arg Asp ([dR][dR][dW][dW][dC][dR][dD]) [rrwwcrd]” was tested, and the “% INHIB. (IL-8 binding to neutrophils)” value was 107.0%.
With “Arg Arg Trp Trp Cys Arg Cys (Ac-[dR][dR][dW][dW][dC][dR][dC]-NH2; not fully specified; printed as Arg Arg Trp Trp Cys Arg Cys; cysteine pairing not given here) [rrwwcrc]” the “% INHIB. (IL-8 binding to neutrophils)” value was 107.7%.
For “Arg Arg Trp Trp Cys Arg Gln ([dR][dR][dW][dW][dC][dR][dQ]) [rrwwcrq]”, the “% INHIB. (IL-8 binding to neutrophils)” value was 89.2%.
For “Arg Arg Trp Trp Cys Arg Glu ([dR][dR][dW][dW][dC][dR][dE]) [rrwwcre]”, the “% INHIB. (IL-8 binding to neutrophils)” value was 99.1%.
For “Arg Arg Trp Trp Cys Arg Gly ([dR][dR][dW][dW][dC][dR]G) [rrwwcrg]”, the “% INHIB. (IL-8 binding to neutrophils)” value was 108.0%.
For “Arg Arg Trp Trp Cys Arg His ([dR][dR][dW][dW][dC][dR][dH]) [rrwwcrh]”, the “% INHIB. (IL-8 binding to neutrophils)” value was 107.0%.
With “Arg Arg Trp Trp Cys Arg Ile ([dR][dR][dW][dW][dC][dR][dI]) [rrwwcri]” the “% INHIB. (IL-8 binding to neutrophils)” value was 93.9%.
In the case of “Arg Arg Trp Trp Cys Arg Leu ([dR][dR][dW][dW][dC][dR][dL]) [rrwwcrl]”, the “% INHIB. (IL-8 binding to neutrophils)” value was 99.1%.
“Arg Arg Trp Trp Cys Arg Lys ([dR][dR][dW][dW][dC][dR][dK]) [rrwwcrk]” was tested, and the “% INHIB. (IL-8 binding to neutrophils)” value was 113.1%.
“Arg Arg Trp Trp Cys Arg Met ([dR][dR][dW][dW][dC][dR][dM]) [rrwwcrm]” was tested, and the “% INHIB. (IL-8 binding to neutrophils)” value was 96.2%.
For “Arg Arg Trp Trp Cys Arg Phe ([dR][dR][dW][dW][dC][dR][dF]) [rrwwcrf]”, the “% INHIB. (IL-8 binding to neutrophils)” value was 105.6%.
With “Arg Arg Trp Trp Cys Arg Pro ([dR][dR][dW][dW][dC][dR][dP]) [rrwwcrp]” the “% INHIB. (IL-8 binding to neutrophils)” value was 87.3%.
With “Arg Arg Trp Trp Cys Arg Ser ([dR][dR][dW][dW][dC][dR][dS]) [rrwwcrs]” the “% INHIB. (IL-8 binding to neutrophils)” value was 70.4%.
For “Arg Arg Trp Trp Cys Arg Thr ([dR][dR][dW][dW][dC][dR][dT]) [rrwwcrt]”, the “% INHIB. (IL-8 binding to neutrophils)” value was 56.3%.
In the case of “Arg Arg Trp Trp Cys Arg Trp ([dR][dR][dW][dW][dC][dR][dW]) [rrwwcrw]”, the “% INHIB. (IL-8 binding to neutrophils)” value was 106.3%.
With “Arg Arg Trp Trp Cys Arg Tyr ([dR][dR][dW][dW][dC][dR][dY]) [rrwwcry]” the “% INHIB. (IL-8 binding to neutrophils)” value was 85.4%.
For “Arg Arg Trp Trp Cys Arg Val ([dR][dR][dW][dW][dC][dR][dV]) [rrwwcrv]”, the “% INHIB. (IL-8 binding to neutrophils)” value was 89.2%.

Same assay, conditions: lower peptide concentration (FIG. 9)
“Arg Arg Trp Trp Cys Arg Cys (Ac-[dR][dR][dW][dW][dC][dR][dC]-NH2; not fully specified; printed as Arg Arg Trp Trp Cys Arg Cys; cysteine pairing not given here) [rrwwcrc]” was tested, and the “more effective than the next best heptamer peptide” value was about 56%.

Same assay, conditions: synthetic peptides, standard assay (Table 6)
With “Ac-KELRCQ-NH2 [IL-8 homologue peptide, reference compound]” the “% Binding Inhibition (IL-8 binding to neutrophils)” value (from here on “% Binding Inhibition”) was −0.4 ± 11.8%.
In the case of “ELRCQCIKTY [IL-8 homologue including the C-X-C motif, reference compound]”, the “% Binding Inhibition” value was 7.6 ± 2.1%.
With ELRMQMIKTY [reference compound] the “% Binding Inhibition” value was −6.9 ± 3.0%.
In the case of ELRSQSIKTY [reference compound], the “% Binding Inhibition” value was 5.8 ± 3.9%.
“GWRRWWCDAVLY [segment of cell surface glycoprotein CD11c precursor, human leukocyte adhesion receptor p150,95 alpha chain, reference compound]” was tested, and the “% Binding Inhibition” value was −12.9 ± 2.9%.

The substances below were run against IL-8 receptors on human neutrophils (human) (assay: inhibition of 125I-IL-8 (10^-12 M) binding to human neutrophils, peptide 100 µM). Settings: not given.
Substance RRWWCA (peptide) has a % INHIB. of 51.9%.
In the case of RRWWCC (peptide), the % INHIB. was 75.1%.
RRWWCD (peptide) was tested, and the % INHIB. was 11.8%.
Substance RRWWCE (peptide) has a % INHIB. of 17.1%.
In the case of RRWWCF (peptide), the % INHIB. was 80.2%.
RRWWCG (peptide) was tested, and the % INHIB. was 86.8%.
In the case of RRWWCH (peptide), the % INHIB. was 87.9%.
RRWWCI (peptide) gave a % INHIB. of 45.8%.
RRWWCK (peptide) was tested, and the % INHIB. was 110%.
RRWWCL (peptide) showed a % INHIB. of 86.9%.
RRWWCM (peptide) gave a % INHIB. of 69%.
Work on RRWWCN (peptide) yielded a % INHIB. of -12%.
RRWWCP (peptide) gave a % INHIB. of 88.3%.
Work on RRWWCQ (peptide) yielded a % INHIB. of 19.2%.
RRWWCS (peptide) was tested, and the % INHIB. was 79.3%.
RRWWCT (peptide) was tested, and the % INHIB. was 88.4%.
In the case of RRWWCV (peptide), the % INHIB. was 81.1%.
RRWWCW (peptide) gave a % INHIB. of 66.4%.
With RRWWCY (peptide) the % INHIB. was 77.9%.
